Assay results published in US7989466B2, “Methods to inhibit or augment an inflammatory response” (Cambridge Enterprise Limited, priority 1999, dated 2011).
pEC50: −log10 of the molar value.

Key:
CCR-2 = CCR-2 (Homo sapiens, UniProt P41597); assay: Competitive binding to CCR-2 on CHO cells; conditions: read-out: ED50, Binding to CCR-2
Method: A competitive binding assay was used to determine the binding of A-I to chemokine receptors. These experiments were performed under ‘Horuk’ conditions (Hesselgesser et al., J. Biol. Chem., 273, 15687 (1998)), except that CHO cells expressing CCR-2 or CXCR-2 (AIDS Reagent Program, MRC London) were used. In each case, the specific binding of 0.25 nM labeled ligand to the cells was determined as the counts bound which were competable by 100 nM cold ligand. In each experiment, A-I was added from a stock solution in DMSO (with <0.1% DMSO final concentration in the assay).

[1] = target: T1, short splice variant D2 dopamine receptor (Homo sapiens, UniProt P14416); assay: Dopamine receptor membrane binding (3H-Spiperone); conditions: 100 μM highest concentration tested; read-out: ED50 for competition of spiperone binding to short splice variant D2 dopamine receptor
T1 construct: purchased RBI/Sigma D-179
T1 sequence (P14416 1-414 isoform P14416-2): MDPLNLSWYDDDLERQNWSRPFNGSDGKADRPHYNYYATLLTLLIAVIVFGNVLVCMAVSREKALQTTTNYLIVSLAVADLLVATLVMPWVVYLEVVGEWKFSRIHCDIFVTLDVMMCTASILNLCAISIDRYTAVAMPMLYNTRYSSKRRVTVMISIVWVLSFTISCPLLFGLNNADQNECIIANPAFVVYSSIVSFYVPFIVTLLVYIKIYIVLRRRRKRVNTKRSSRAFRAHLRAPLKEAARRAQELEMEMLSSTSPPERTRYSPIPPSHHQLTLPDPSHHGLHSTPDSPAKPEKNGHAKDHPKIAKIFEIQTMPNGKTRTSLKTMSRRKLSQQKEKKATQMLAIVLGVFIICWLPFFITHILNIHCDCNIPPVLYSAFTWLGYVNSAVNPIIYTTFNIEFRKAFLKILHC
Method: For dopamine receptor binding, membranes (D-179, RBI/Sigma) are diluted into binding buffer (75 mM Tris pH 7.4, 12.5 mM MgCl2 and 2 mM EDTA). For example, 10 μl of membranes are diluted in 500 μl of binding buffer (i.e., 1:50 dilution), which is aliquoted into labelled tubes. Cold competitor or test competitor is added, (e.g., 5 μl of 100× stock solution; 5 μl of 1 mM haloperidol solution (H-100, RBI/Sigma in DMSO). Radioligand is then added (3H-Spiperone, TRK 818, Amersham, 250 μCi in 250 μl, 10.5 μM at 95 Ci/mmol). For competition studies, 0.5 nM is used. A 100× stock (i.e., 50 nM) is made by diluting the commercial stock 1:210 in binding buffer, and 5 μl is added to every tube. Control tubes have radioligand but no membranes. The mixtures are vortexed, then spun very briefly. The mixtures are then incubated for 1 hour at 27° C. in a water bath. The mixture is filtered through GF/C filters over a vacuum. Each filter is pre-soaked in polyethyleneimine (0.3% in water; add 1 ml of 10% stock (P-261; RBI/Sigma) to 33 ml of MilliQ water). The tubes are washed with 2-3 ml of wash buffer (50 mM Tris pH 7.4) and the wash filtered. The filters are then rinsed with 3×5 ml of wash buffer, air dried, placed in a scintillation vial and 4.5 ml of scintillant added. The activity on the filter is then determined.

HIV (IIIb) = assay: HIV infectivity of Jurkat T-cells, p24gag immunofluorescence; assay type: cell-based; conditions: 100 μM peptide (SDF1α 100 ng/ml), about 48 hours after infection
Method: (a) HIV (IIIb) replication in cultures of Jurkat T-cells was estimated by measuring the supernatant reverse transcriptase activity two weeks after infection. Peptide 2 and peptide 3 were at 100 μM final concentration and SDF-1α was added at 100 ng/ml final concentration 1 hour prior to exposure to virus. Values are mean±SEM from 12 wells, expressed as the percentage of the reverse transcriptase activity in the supernatant from the control wells. The experiment shown is typical of six separate experiments. (b) HIV (IIIb) infectivity of Jurkat T-cells was estimated by staining cells treated identically to those in (a) for p24^gag expression. Values are mean±S.D. percentage of cells stained for p24gag averaged from 12 fields of view from each of two separate wells. (c) HIV (MN) infectivity of THP-1 cells measured as in (b). […] Both fields of view contain 40-50 cells (assessed by Hoeschst 33345 staining viewed under UV illumination conditions).
Jurkat cells following HIV infection were attached to 8-well chamber slides (Becton-Dickinson) by spinning the slides using a plate rotor in a Labofuge centrifuge (Haeraeus) at 3,000×g for 5 minutes. […] A threshold was then applied to each image which was the lowest threshold that detected <1% of the pixels of an image of uninfected cells stained under identical conditions. The number of objects exceeding this threshold in each field of view were counted. […]

CCR-2, sequence (P41597 1-313 limits assumed): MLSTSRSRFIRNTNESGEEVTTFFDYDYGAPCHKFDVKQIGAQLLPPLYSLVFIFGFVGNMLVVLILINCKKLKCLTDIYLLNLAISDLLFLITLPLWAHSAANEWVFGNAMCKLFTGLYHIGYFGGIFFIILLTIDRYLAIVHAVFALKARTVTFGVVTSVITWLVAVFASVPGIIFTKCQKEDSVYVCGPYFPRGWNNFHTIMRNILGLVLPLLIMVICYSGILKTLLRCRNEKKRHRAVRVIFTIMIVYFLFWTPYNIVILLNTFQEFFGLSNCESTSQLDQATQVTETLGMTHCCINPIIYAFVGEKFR

| Compound | pEC50 (CCR-2) | pEC50 [1] | inhibition of viral infectivity, p24gag staining, Jurkat T-cells (HIV (IIIb)) |
| --- | --- | --- | --- |
| C=CCCCCCCCCC(=O)N[C@H]1CCC(=O)NC1=O [A-I (NR58.4), [3S]-3-(undec-10-enoylamino)piperidine-2,6-dione] | 8.30 | < 4.00 | – |
| EICADPKQKWVQ [peptide 3(1-12)[MCP-1]] | – | – | ineffective |
